Source: US10782295B2, “Cysteine-reactive ligand discovery in proteomes” (THE SCRIPPS RESEARCH INSTITUTE, priority 2013, dated 2020)

Key:
ZAK = ZAK (Homo sapiens, UniProt Q9NYL2); test: SILAC-ABPP with acylphosphate-ATP probe; format: binding; parameters: Full-length cDNA encoding human ZAK-13 (BC001401); expressed in transfected cells; settings: 100 μM, 30 min; ZAK-transfected HEK293T proteome
Excerpt: The gel signals for IA-labeling of WT-ZAK were blocked by pretreatment with HNE over a concentration range that closely matched the HNE-sensitivity profile observed for C22 in competitive isoTOP-ABPP experiments (FIG. 4b, compare to FIG. 3a). […] Considering further that C22 is predicted to reside adjacent to the ATP-binding loop of ZAK, we postulated that the HNE-induced loss of kinase activity might be due to blockade of ATP-binding.
HEK-293T cells with stable expression of wild-type ZAK were passaged six times in DMEM medium minus 1-lysine and 1-arginine (Thermo) supplemented 10% dialyzed FBS (Gemini), 1% PSQ (1% vol/vol 10,000 units penicillin, 10 mg streptomycin, 29.2 mg lglutamate solution) and 100 μg/mL [^13C6, ^15N4] 1-arginineHCl and [^13C6,^15N2] 1-lysineHCl (heavy) or 1-arginineHCl and 1-lysineHCl (light) (Sigma-Aldrich). […] The trypsin digested samples were analysed by LC-MS/MS and enriched kinase peptides were identified by SEQUEST and DTASelect. The amounts of probe-labeled kinases with and without HNE treatment were quantified using the CIMAGE module that was developed for quantitative SILAC-ABPP chemoproteomic profiling. As internal controls, light and heavy proteomes were trypsin digested without probe labeling and streptavidin enrichment, and analysed by LC-MS/MS to quantify the basic level of each kinase between light and heavy samples. […]

JNK pathway activation = test: Western blotting of phospho-JNK in C22A-ZAK-transfected HEK-293T cells; format: cell-based, human
Method: We next set out to assess the functional effects of HNE modification of ZAK in human cells. HEK-293T cells were stably transfected with cDNAs for WT-ZAK, C22A-ZAK, or K45M-ZAK and the activation state of their MAPK signaling pathways was monitored by western blotting with anti-phosphoprotein antibodies. […] We next treated cells with H2O2 (1 mM, 30 min) to induce oxidative stress, a process that is known to activate the JNK pathway^41,42. H2O2 treatment stimulated JNK activity in both WT- and C22A-ZAK-transfected cells (but not K45M-ZAK-transfected cells), with WT-ZAK cells showing the greater level of activation (FIG. 5b,c). […] We interpret these findings to indicate the existence of both ZAK-dependent and ZAK-independent pathways for HNE modulation of JNK activation (FIG. 5d). By modifying C22 on ZAK, HNE blocks the contribution that this kinase makes to the activation of the JNK pathway. […]
Mouse and rabbit monoclonal antibodies against phospho-ERK 1/2 (Thr202/Tyr204), phosphor-SAPK/JNK (Thr183/[…]), phosphor-p38 MAPK (Thr180/[…]) and total ERK 1/2, SAPK/JNK and p38 MAPK were purchased from Cell Signaling Technology. […] Protein band intensities were quantified by ImageJ8 and ratios of phosphor-MAPK over total MAPK were computed. […]

ZAK, sequence (Q9NYL2 1-455 isoform Q9NYL2-2): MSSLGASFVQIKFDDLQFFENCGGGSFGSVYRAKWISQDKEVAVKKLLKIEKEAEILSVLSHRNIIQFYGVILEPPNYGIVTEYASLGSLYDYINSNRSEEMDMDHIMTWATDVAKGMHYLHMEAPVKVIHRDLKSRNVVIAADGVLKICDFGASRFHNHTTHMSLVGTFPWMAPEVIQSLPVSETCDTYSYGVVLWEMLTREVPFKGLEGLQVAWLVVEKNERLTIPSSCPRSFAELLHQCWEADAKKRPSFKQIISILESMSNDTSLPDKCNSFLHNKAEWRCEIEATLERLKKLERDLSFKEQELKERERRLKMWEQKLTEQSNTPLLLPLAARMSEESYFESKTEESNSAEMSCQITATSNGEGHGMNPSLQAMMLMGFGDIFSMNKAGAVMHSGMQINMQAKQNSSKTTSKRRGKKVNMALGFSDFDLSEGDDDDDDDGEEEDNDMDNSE

SMILES: CCCCCC(O)/C=C/C=O (stereo not drawn) [4-HNE, 4-Hydroxynonenal]
- acylphosphate-ATP probe-labeling of ZAK (ZAK): profoundly reduced
- JNK activation by HNE alone, C22A-ZAK-transfected cells (JNK pathway activation; 50 or 100 μM, 60 min): dramatic concentration-dependent activation of JNK
- H2O2-dependent JNK activation, C22A-ZAK cells (JNK pathway activation; pre-treatment 100 μM, 30 min, then H2O2 1 mM, 30 min): hyper-activating JNK activity
